The results in this text go back to US20090111778A1, “2-Keto-Oxazoles as Modulators of Fatty Acid Amide Hydrolase” (priority 2005, published 2009).

Each structure is given as a SMILES string. Counter-ions that a name gives are not always drawn.

One assay addresses T1, rat FAAH (Rattus norvegicus, UniProt P97612).
T1 construct: expressed in transfected cells
T1 sequence (P97612 1-579): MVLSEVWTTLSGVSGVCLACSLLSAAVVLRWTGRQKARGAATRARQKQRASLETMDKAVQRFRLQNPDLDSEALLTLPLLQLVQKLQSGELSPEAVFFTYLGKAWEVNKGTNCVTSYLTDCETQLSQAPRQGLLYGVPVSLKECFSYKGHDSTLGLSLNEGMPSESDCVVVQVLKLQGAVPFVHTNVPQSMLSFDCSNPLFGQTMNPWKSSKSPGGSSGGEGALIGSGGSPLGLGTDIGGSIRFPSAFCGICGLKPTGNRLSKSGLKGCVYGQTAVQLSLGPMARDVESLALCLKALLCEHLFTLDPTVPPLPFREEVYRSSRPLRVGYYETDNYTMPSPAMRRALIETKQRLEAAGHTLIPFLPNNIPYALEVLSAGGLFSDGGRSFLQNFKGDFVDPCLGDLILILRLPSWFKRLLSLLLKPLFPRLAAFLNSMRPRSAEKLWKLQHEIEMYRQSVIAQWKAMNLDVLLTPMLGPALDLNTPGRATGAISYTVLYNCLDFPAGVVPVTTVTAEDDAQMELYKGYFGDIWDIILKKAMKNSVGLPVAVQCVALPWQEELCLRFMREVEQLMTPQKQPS
Briefly: Assay Method 2: FAAH assay, hydrolysis of 3H-anandamide by homogenate of SK-N-MC cells transfected with rat FAAH. Format: biochemical. The following applies: T84 or transfected SK-N-MC cell homogenate, 3H-AEA tracer 80 nM, rt 1 h, pH 9. The protocol:
A. Transfection of Cells with Rat FAAH A 10-cm tissue culture dish with a confluent monolayer of SK-N-MC cells was split 2 days (d) prior to transfection. Using sterile technique, the media was removed and the cells were detached from the dish by the addition of trypsin. One fifth of the cells were then placed onto a new 10-cm dish. Cells were grown in a 37° C. incubator with 5% CO2 in Minimal Essential Media Eagle with 10% Fetal Bovine Serum. After 2 d, cells were approximately 80% confluent. These cells were removed from the dish with trypsin and pelleted in a clinical centrifuge. The pellet was re-suspended in 400 μL complete media and transferred to an electroporation cuvette with a 0.4 cm gap between the electrodes. Supercoiled rat FAAH cDNA (1 μg) was added to the cells and mixed. The voltage for the electroporation was set at 0.25 kV, and the capacitance was set at 960 μF. After electroporation, the cells were diluted into complete media (10 mL) and plated onto four 10-cm dishes. Because of the variability in the efficiency of electroporation, four different concentrations of cells were plated. The ratios used were 1:20, 1:10, and 1:5, with the remainder of the cells being added to the fourth dish. The cells were allowed to recover for 24 h before adding the selection media (complete media with 600 μg/mL G418). After 10 d, dishes were analyzed for surviving colonies of cells. Dishes with well-isolated colonies were used. Cells from individual colonies were isolated and tested. […] B. FAAH Assay […] The reaction mixture was incubated at rt for 1 h. During the incubation, 96-well Multiscreen filter plates (catalog number MAFCNOB50; Millipore, Bedford, Mass., USA) were loaded with 25 μL of activated charcoal (Multiscreen column loader, catalog number MACL09625, Millipore) and washed once with 100 μL of MeOH. Also during the incubation, 96-well DYNEX MicroLite plates (catalog number NL510410) were loaded with 100 μL of MicroScint40 (catalog number 6013641, Packard Bioscience, Meriden, Conn., USA). After the 1 h incubation, 60 μL of the reaction mixture were transferred to the charcoal plates, which were then assembled on top of the DYNEX plates using Centrifuge Alignment Frames (catalog number MACF09604, Millipore). The unbound labeled ethanolamine was centrifuged through to the bottom plate (5 min at 2000 rpm), which was preloaded with the scintillant, as described above. The plates were sealed and left at rt for 1 h before counting on a Hewlett Packard TopCount.

For another assay, the target named is T2, human FAAH (Homo sapiens, UniProt O00519).
T2 construct: expressed in transfected cells
T2 sequence (O00519 1-579): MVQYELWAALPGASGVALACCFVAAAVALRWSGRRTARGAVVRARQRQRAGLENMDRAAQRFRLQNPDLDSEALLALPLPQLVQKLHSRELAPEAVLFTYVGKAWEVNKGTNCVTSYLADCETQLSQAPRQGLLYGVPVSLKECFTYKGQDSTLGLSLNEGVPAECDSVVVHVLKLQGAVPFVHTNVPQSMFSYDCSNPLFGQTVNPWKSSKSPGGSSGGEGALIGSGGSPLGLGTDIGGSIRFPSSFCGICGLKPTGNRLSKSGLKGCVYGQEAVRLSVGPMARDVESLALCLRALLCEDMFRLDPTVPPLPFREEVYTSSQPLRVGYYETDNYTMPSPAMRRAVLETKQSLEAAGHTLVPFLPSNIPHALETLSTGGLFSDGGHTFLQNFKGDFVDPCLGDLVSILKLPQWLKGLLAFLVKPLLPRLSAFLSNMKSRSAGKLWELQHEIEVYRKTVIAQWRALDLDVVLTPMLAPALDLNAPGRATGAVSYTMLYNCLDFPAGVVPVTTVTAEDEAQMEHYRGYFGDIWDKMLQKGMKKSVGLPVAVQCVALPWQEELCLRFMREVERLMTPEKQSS
Briefly: Assay Method 1: FAAH assay, hydrolysis of 3H-anandamide by homogenate of SK-N-MC cells transfected with human FAAH. Type of assay: biochemical. The following applies: human FAAH; T84 or transfected SK-N-MC cell homogenate; 3H-AEA tracer 80 nM; rt 1 h; pH 9; read-out: Assay 1 IC50. The method, then:
A. Transfection of Cells with Human FAAH
A 10-cm tissue culture dish with a confluent monolayer of SK-N-MC cells was split 2 days (d) prior to transfection. Using sterile technique, the media was removed and the cells were detached from the dish by the addition of trypsin. One fifth of the cells were then placed onto a new 10-cm dish. Cells were grown in a 37° C. incubator with 5% CO2 in Minimal Essential Media Eagle with 10% Fetal Bovine Serum. After 2 d, cells were approximately 80% confluent. These cells were removed from the dish with trypsin and pelleted in a clinical centrifuge. The pellet was re-suspended in 400 μL complete media and transferred to an electroporation cuvette with a 0.4 cm gap between the electrodes. Supercoiled human FAAH cDNA (1 μg) was added to the cells and mixed. The voltage for the electroporation was set at 0.25 kV, and the capacitance was set at 960 μF. After electroporation, the cells were diluted into complete media (10 mL) and plated onto four 10-cm dishes. Because of the variability in the efficiency of electroporation, four different concentrations of cells were plated. The ratios used were 1:20, 1:10, and 1:5, with the remainder of the cells being added to the fourth dish. The cells were allowed to recover for 24 h before adding the selection media (complete media with 600 μg/mL G418). After 10 d, dishes were analyzed for surviving colonies of cells. Dishes with well-isolated colonies were used. Cells from individual colonies were isolated and tested.
The assay mixture consisted of […] of the cell homogenate, 10 μL of the test compound, and 40 μL of anandamide [1-^3H-ethanolamine] (3H-AEA, Perkin-Elmer, 10.3 Ci/mmol), which was added last, for a final tracer concentration of 80 nM. The reaction mixture was incubated at rt for 1 h. During the incubation, 96-well Multiscreen filter plates (catalog number MAFCNOB50; Millipore, Bedford, Mass., USA) were loaded with 25 μL of activated charcoal (Multiscreen column loader, catalog number MACL09625, Millipore) and washed once with 100 μL of MeOH. Also during the incubation, 96-well DYNEX MicroLite plates (catalog number NL510410) were loaded with 100 μL of MicroScint40 (catalog number 6013641, Packard Bioscience, Meriden, Conn., USA). After the 1 h incubation, 60 μL of the reaction mixture were transferred to the charcoal plates, which were then assembled on top of the DYNEX plates using Centrifuge Alignment Frames (catalog number MACF09604, Millipore). The unbound labeled ethanolamine was centrifuged through to the bottom plate (5 min at 2000 rpm), which was preloaded with the scintillant, as described above. The plates were sealed and left at rt for 1 h before counting on a Hewlett Packard TopCount.

Turning to `O=C(CCCC1CCN(Cc2cncc(Br)c2)CC1)c1ncco1` [Example 78, 4-[1-(5-Bromo-pyridin-3-ylmethyl)-piperidin-4-yl]-1-oxazol-2-yl-butan-1-one], the IC50 was 500 nM against rat FAAH and 98 nM at human FAAH.

For the molecule `O=C(CCCC1CCN(Cc2cccc(F)c2F)CC1)c1ncco1` [Example 81, 4-[1-(2,3-Difluoro-benzyl)-piperidin-4-yl]-1-oxazol-2-yl-butan-1-one], the IC50 at rat FAAH amounted to 1000 nM; at human FAAH it was 200 nM.

`O=C(CCCC1CCN(Cc2cc3ccccc3nc2Cl)CC1)c1ncco1` [Example 97, 4-[1-(2-Chloro-quinolin-3-ylmethyl)-piperidin-4-yl]-1-oxazol-2-yl-butan-1-one]: the results for the IC50 on rat FAAH and on human FAAH were 23 nM and 12 nM, respectively.

Consider `CC(C)CCC(=O)N1CCC(CCCC(=O)c2ncco2)CC1` [Example 51, 4-Methyl-1-[4-(4-oxazol-2-yl-4-oxo-butyl)-piperidin-1-yl]-pentan-1-one], for which the IC50 against rat FAAH was found to be 635 nM; on human FAAH, 230 nM.

Turning to `Cc1ccc(S(=O)(=O)N2CCC(CCCC(=O)c3ncco3)CC2)cc1` [Example 52, 1-Oxazol-2-yl-4-[1-(toluene-4-sulfonyl)-piperidin-4-yl]-butan-1-one], the IC50 turned out to be 13 nM on rat FAAH and 1040 nM at human FAAH.

Regarding `N#Cc1cccc(-c2ccc(CN3CCC(CCCC(=O)c4ncco4)CC3)cn2)c1` [Example 112, 3-{5-[4-(4-Oxazol-2-yl-4-oxo-butyl)-piperidin-1-ylmethyl]-pyridin-2-yl}-benzonitrile], the IC50 on rat FAAH was found to be 174 nM; at human FAAH it was 14 nM.

In the case of `O=C(CCCC1CCN(Cc2cc(F)cc(F)c2F)CC1)c1ncco1` [Example 124, 1-Oxazol-2-yl-4-[1-(2,3,5-trifluoro-benzyl)-piperidin-4-yl]-butan-1-one], the IC50 at rat FAAH stood at 450 nM; on human FAAH, 30 nM.

With `O=C(CCCC1CCN(C(=O)CC2CCCCC2)CC1)c1ncco1` [Example 49, 4-[1-(2-Cyclohexyl-acetyl)-piperidin-4-yl]-1-oxazol-2-yl-butan-1-one], the IC50 against rat FAAH was determined as 350 nM; at human FAAH it was 100 nM.

Take `COC(=O)c1cccc(-c2cnc(C(=O)CCCC3CCN(Cc4ccc(C(C)C)cc4)CC3)o2)n1` [Example 147, 6-(2-[4-{1-(4-Isopropyl-benzyl)-piperidin-4-yl]-butyryl}-oxazol-5-yl)-pyridine-2-carboxylic acid methyl ester]: the results for the IC50 against rat FAAH and on human FAAH were 8 nM and 18 nM, respectively.

As to `O=C(CCCC1CCN(Cc2ccc3c(c2)OC(F)(F)O3)CC1)c1ncco1` [Example 125, 4-[1-(2,2-Difluoro-benzo[1,3]dioxol-5-ylmethyl)-piperidin-4-yl]-1-oxazol-2-yl-butan-1-one], the figures for the IC50 at rat FAAH and on human FAAH were 81 nM and 4 nM, respectively.

As to `Cc1ccccc1CN1CCC(CCCC(=O)c2ncco2)CC1` [Example 80, 4-[1-(2-Methyl-benzyl)-piperidin-4-yl]-1-oxazol-2-yl-butan-1-one], the IC50 against rat FAAH stood at 2000 nM; at human FAAH it was 1200 nM.

For `CC(C)C(=O)N1CCC(CCCC(=O)c2ncco2)CC1` [Example 30, 4-(1-Isobutyryl-piperidin-4-yl)-1-oxazol-2-yl-butan-1-one], the IC50 on rat FAAH is 2250 nM; on human FAAH, 250 nM.

In the case of `Cc1ccc(S(=O)(=O)N2CCC(CCCC(=O)c3ncc(C(=O)O)o3)CC2)cc1` [Example 146], the IC50 against rat FAAH came out at 14 nM; on human FAAH, 26 nM.

For the molecule `O=C(CCCC1CCN(Cc2cccnc2)CC1)c1ncco1` [Example 5, 1-Oxazol-2-yl-4-(1-pyridin-3-ylmethyl-piperidin-4-yl)-butan-1-one], the IC50 against rat FAAH came to 3000 nM; at human FAAH it was 1200 nM.

`O=C(CCCC1CCN(Cc2ccc(Cl)c(Cl)c2)CC1)c1ncco1` [Example 12, 4-[1-(3,4-Dichloro-benzyl)-piperidin-4-yl]-1-oxazol-2-yl-butan-1-one]: the IC50 at rat FAAH was 70 nM; on human FAAH, 50 nM.

Turning to `O=C(CCCC1CCN(S(=O)(=O)CCc2ccccc2)CC1)c1ncco1` [Example 54, 1-Oxazol-2-yl-4-[1-(2-phenyl-ethanesulfonyl)-piperidin-4-yl]-butan-1-one], the IC50 against rat FAAH was determined as 125 nM; at human FAAH, 6 nM.

`O=C(O)c1cccc(-c2cnc(C(=O)CCCC3CCN(Cc4cccc(OC5CCCCC5)c4)CC3)o2)n1` [Example 150, 6-(2-{4-[1-(3-Cyclohexyloxy-benzyl)-piperidin-4-yl]-butyryl}-oxazol-5-yl)-pyridine-2-carboxylic acid trifluoroacetic acid salt]: the IC50 against rat FAAH was 7 nM; on human FAAH it was 16 nM.

As usually defined, the IC50 is the concentration that inhibits the measured activity by half.
